Results on 15 compounds are retold here after patent US5208223A, “Phosphocholine derivative inhibitors of phospholipase A2” (American Cyanamid Company, priority 1992, dated 1993).

Several values for one entry are separate records, joined by “and”; a condition that tells them apart may be missing. Equal entries are not always repeated. Structures can show the parent of a compound that is named as a salt. Where two headings read alike, the source gives them in different places.

Experiment [1] addresses T1, porcine pancreatic PLA2 (Sus scrofa, UniProt P00592).
T1 construct: purchased Sigma
Briefly: MHPLA2 assay: in vitro porcine pancreatic phospholipase A2, mixed micelle design, [s]=10 μm. It is filed as biochemical. The settings on record: for % Inh.: subs. con. 10; for inhibition at 25 µg/mL: subs. con. 10, read-out: % Inh. Avg.; for inhibition at 10 µg/mL: subs. con. 10, read-out: % Inh. The method, then:
(§1) Phospholipase A2 activity was measured by a radiochemical assay in which labeled synthetic phosphatidylcholine substrate is converted by porcine pancreatic PLA2 to free radiolabeled arachidonate and lyso PC. Radiolabeled arachidonate is extracted from the reaction mixture and separated from unreacted substrate by column chromatography or TLC. Radioactivity (cpm) in samples is quantitated by liquid scintillation counting. Specific details are as follows:
(§2) Labeled substrate(1-stearyl-2-^3 H-arachidonylphosphatidylcholine; Amersham, sp. act. 84 (uCi/mmole, 0.025 to 0.2 uCi/assay tube and unlabeled substrates (Avanti), in sufficient quantity to give 20,000 cpm to 50,000 cpm and 10 μM to 1,000 μM final concentration/assay tube are dried under a stream of nitrogen. The PLA2 and mPLA2 assays utilized a […] substrate concentration. The mHPLA2 and HPLA2 assays (vida infra) utilized a 10 μM substrate concentration and the SmPLA2 assay utilized a substrate concentration ranging from 100 to 1000 μm. The substrate is then redissolved in 0.1M tris-HCl buffer, pH 9.0 containing 10 mM CaCl2 and 10 mM Na taurocholate detergent. The mixture is sonicated in a Kontes Sonifier to yield a homogeneous dispersion. The "mixed" micellar substrate is clear. An aliquot is reserved for a cpm count (total substrate). The total reaction volume is 500 μL; siliconized glassware or plasticware is used throughout. Enzyme (Sigma, sp. act.>690 U/mg protein and preferably 900 U/mg protein) is diluted 1:750 or 1:1000 in 0.1M tris-HCl buffer, pH 9.0 (without Ca^++ and detergent). Enzyme dilution depends on substrate concentration and required enzyme concentration.
(§3) The substrate in buffer is kept on ice until the reaction is started. The reaction is started by adding 10 μL of diluted enzyme solution to 490 μL of micellar substrate solution. Samples are incubated in a 37° C. water bath for 15 minutes with gentle mixing. The reaction is terminated by the addition of 100 μL of 1M fresh trichloroacetic acid (TCA) solution and chilling the tubes on ice for 30 minutes.
(§4) Samples (600 μL) are extracted with 3 ml CHCl3 /MeOH (2:1) for thin layer chromatography or in hexane/ether (9:1) for column chromatography. The phases are separated by gentle centrifugation at 700 rpm×5'. The organic phase is recovered.
(§5) Labeled arachidonate extracted with CHCl3 /MeOH is separated on silica gel G TLC plates (Analtech). Twenty μL of a 2 mg/ml internal standard solution of arachidonic acid (Sigma) is combined with 2-3 ml of the organic phase. The entire mixture is dried under nitrogen and redissolved in 50 μL of CHCl3 /MeOH (2:1). A 20 μL sample is counted in 10 ml of Beckman Redi-solv HP and spotted on silica gel G plates. The solvent system used to develop the plate is CHCl3 /MeOH/13.5N NH3 /H2 O (70:30:4:1). Plates are developed in a glass chamber for 1-11/2 hours, air dried, and the spots visualized in an iodine vapor chamber. Standards of phosphatidylcholine, lyso PC, and arachidonic acid (Sigma) are made as 2 mg/ml stocks in CHCl3 /MeOH (2:1) and spotted on plates. Spots corresponding to arachidonate and phospholipid are scraped and counted in 10 ml Beckman Redi-Solv HP scintillation fluid.
(§6) Samples are extracted with hexane/ether and the upper organic phase recovered. An aliquot is applied to a Silicar CC4 (Malincrodt) column. Columns are prepared using 1 ml of a 1:1 slurry of silicar CC4 in hexane/ether in a Pasteur pipet (approx. 2 cm height). Columns are rinsed with 500 μL of hexane/ether before adding the sample (300-600 μL) to the column. Columns are eluted with a total of 6 ml of hexane/ether. The 6 ml sample is counted in 10 ml of Beckman Redi-Solv HP scintillation fluid.
or the phospholipase A2 assay, compounds are prepared as 1 mg/ml stock solutions in MeOH and diluted appropriately in PBS. […]

Experiment [2] has as its target T1, porcine pancreatic PLA2. Nature of the experiment: PLA2 assay: in vitro porcine pancreatic phospholipase A2, preincubation of drug+enzyme, substrate 2 nM. The settings on record: preincubation, subs. con. 2; for inhibition at 10 µg/mL: dose 10 μ/ml; for inhibition at 20 µg/mL: dose 20 μ/ml; for inhibition at 25 µg/mL: dose 25 μ/ml; for inhibition at 50 µg/mL: dose 50 μ/ml. It is filed as biochemical. As for the experimental part: as §1, §2, §3, §4, §5, §6
or the phospholipase A2 assay, compounds are prepared as 1 mg/ml stock solutions in MeOH and diluted appropriately in PBS.

Setting [3] is: read-out: IC50 Avg. (converted).

T1 sequence (P00592 23-146): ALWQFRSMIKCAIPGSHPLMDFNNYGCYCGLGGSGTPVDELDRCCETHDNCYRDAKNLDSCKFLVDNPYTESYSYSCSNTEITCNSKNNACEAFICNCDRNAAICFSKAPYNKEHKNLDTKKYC

For `CCCCCCCCCCCCCCCCOCC(COP(=O)([O-])OCC[N+](C)(C)C)OP(=O)(OC)OCCCCC` (single isomer, unassigned) [3,5,8,10-Tetraoxa-4,9-diphosphapentadecan-1-aminium, 7-[(hex] [3,5,8,10-Tetraoxa-4,9-diphosphapentadecan-1-aminium, 7-[(hexadecyloxy)methyl]-4-hydroxy-9-methoxy-N,N,N-trimethyl-, hydroxide, 4-(inner salt), 4,9-dioxide, less polar isomer], the “% Inh.” value at porcine pancreatic PLA2 [1] (dose 25 μ/ml) is reported as “STIM”.
Broadly, the IC50 is the concentration that inhibits the measured activity by half. For the compound `CCCCCCCCCCCCCCCCOCC(COP(=O)([O-])OCC[N+](C)(C)C)OP(=O)(OC)OCCCCCCCCCCCCCCCC` (stereo not shown) [3,5,8,10-Tetraoxa-4,9-diphosphahexacosan-1-aminium, 7-[(hexadecyloxy)methyl]-4-hydroxy-9-methoxy-N,N,N-trimethyl-, hydroxide, inner salt, 4,9-dioxide], the inhibition at 25 µg/mL on porcine pancreatic PLA2 [1] (dose 25 μ/ml) turned out to be 62%. The IC50 was 4 µM and 3.5 µM on porcine pancreatic PLA2 [2] (read-out: IC50 (converted)); 3.75 µM at porcine pancreatic PLA2 [2] (setting [3]).
For `CCCCCCCCCCCCCCCCOP(=O)(O)OCCOP(=O)([O-])OCC[N+](C)(C)C` [3,9-Dihydroxy-N,N,N-trimethyl-3,5,8,10-tetraoxa-4,9-diphosphahexacosan-1-aminium, hydroxide, 4-(inner salt) 4,9-dioxide], the inhibition at 10 µg/mL on porcine pancreatic PLA2 [2] (read-out: % Inh. Avg.) was 20%.
Consider `CCCCCCCCCCCCCCCCOCC(COP(=O)([O-])OCC[N+](C)(C)C)CC(O)CCCCCCCCCCCCCCCC` (single isomer, unassigned) [4-Hydroxy-7-(2-hydroxyoctadecyl)-N,N,N-trimethyl-3,5,9-trioxa-4-phosphapentacosan-1-aminium, hydroxide, inner salt, 4-oxide], for which, on porcine pancreatic PLA2 [2] (read-out: % Inh.), the inhibition at 10 µg/mL was 80% and the inhibition at 20 µg/mL was found to be 80%. Further, the IC50 at porcine pancreatic PLA2 [2] (read-out: IC50 (converted)) was 2.18 µM.
For `CCCCCCCCCCCCCCCCOCC(COP(=O)([O-])OCC[N+](C)(C)C)CC(C)(O)CCCCCCCCCCCCCCCC` (stereo not shown) [4-Hydroxy-7-(2-hydroxy-2-methyloctadecyl)-N,N,N-trimethyl-3,5,9-trioxa-4-phosphapentacosan-1-aminium, hydroxide, inner salt, 4-oxide], on porcine pancreatic PLA2 [2] (read-out: % Inh.), the inhibition at 10 µg/mL was found to be 65% and the inhibition at 20 µg/mL was 66%. Besides, the inhibition at 10 µg/mL at porcine pancreatic PLA2 [2] (read-out: % Inh. Avg.) came to 64%. The 50% inhibitory concentration (IC50) at porcine pancreatic PLA2 [2] (read-out: IC50 (converted)) is 7.89 µM.
For `CCCCCCCCCCCCCCCCOCC(COP(=O)([O-])OCC[N+](C)(C)C)OP(=O)(OC)OCCCCCCCCCCCCCCCC` (stereo not shown) [3,5,8,10-Tetraoxa-4,9-diphosphahexacosan-1-aminium, 7-[(hexadecyloxy)methyl]-4-hydroxy-9-methoxy-N,N,N-trimethyl-hydroxide, inner salt, 4,9-dioxide], the inhibition at 10 µg/mL on porcine pancreatic PLA2 [1] (dose 10 μ/ml) worked out at 0%; at porcine pancreatic PLA2 [2] (read-out: % Inh.) it was 61%. The inhibition at 20 µg/mL at porcine pancreatic PLA2 [2] (read-out: % Inh.) was determined as 65%. Also, the inhibition at 25 µg/mL on porcine pancreatic PLA2 [2] (read-out: % Inh.) was 71%; at porcine pancreatic PLA2 [2] (read-out: % Inh. Avg.), 77%. The inhibition at 50 µg/mL on porcine pancreatic PLA2 [2] (read-out: % Inh.) is 73% and 88%; at porcine pancreatic PLA2 [2] (read-out: % Inh. Avg.) it was 80%. Also, the IC50 at porcine pancreatic PLA2 [2] (read-out: IC50 (converted)) is 7.5 µM and 5.62 µM and 7.25 µM; on porcine pancreatic PLA2 [2] (setting [3]), 6.75 µM.
Turning to `CCCCCCCCCCCCCCCCOCC(COP(=O)([O-])OCC[N+](C)(C)C)OP(=O)(OC)OCCCCC` (single isomer, unassigned) [3,5,8,10-Tetraoxa-4,9-diphosphapentadecan-1-aminium, 7-[(hexadecyloxy)methyl]-4-hydroxy-9-methoxy-N,N,N-trimethyl-, hydroxide, 4-(inner salt),4,9-dioxide, more polar isomer], the inhibition at 10 µg/mL at porcine pancreatic PLA2 [1] (dose 10 μ/ml) turned out to be 0%. Further, the IC50 at porcine pancreatic PLA2 [2] (read-out: IC50 (converted)) is 3.87 µM.
With `CCCCCCCCCCCCCCCCOCC(COP(=O)([O-])OCC[N+](C)(C)C)OP(=O)(O)OCCCCCCCCCCCCCCCC` (stereo not shown) [3,5,8,10-Tetraoxa-4,9-diphosphahexacosan-1-aminium, 7-[(hexa] [3,5,8,10-Tetraoxa-4,9-diphosphahexacosan-1-aminium, 7-[(hexadecyloxy)methyl]-4,9-dihydroxy-N,N,N-trimethyl-, hydroxide, 4-inner salt), 4,9-dioxide], the “% Inh.” value at porcine pancreatic PLA2 [1] (dose 10 μ/ml) and on porcine pancreatic PLA2 [1] (dose 25 μ/ml) was “STIM” in each case.
Turning to `CCCCCCCCCCCCCCCCOC[C@H](COP(=O)([O-])OCC[N+](C)(C)C)OP(=O)(OC)OCCCCCCCCCCCCCCCC` (single isomer, unassigned), at porcine pancreatic PLA2 [2] (read-out: % Inh. Avg.), the inhibition at 10 µg/mL was 22% and the inhibition at 20 µg/mL amounted to 34%. For the same compound, the IC50 at porcine pancreatic PLA2 [2] (read-out: IC50 (converted)) was 17.1 µM.
With `CCCCCCCCCCCCCCCCOC[C@@H](COP(=O)([O-])OCC[N+](C)(C)C)OP(=O)(O)OCCCCCCCCCCCCCCCC` [3,5,8,10-Tetraoxa-4,9-diphosphahexacosan-1-aminium, 7-[(hexadecyloxy)methyl]-4,9-dihydroxy-N,N,N-trimethyl-, hydroxide, 4-(inner salt), 4,9-dioxide, (7S)], on porcine pancreatic PLA2 [1] (dose 10 μ/ml), the “% Inh.” value is “STIM”. Besides, the “% Inh.” value on porcine pancreatic PLA2 [1] (dose 25 μ/ml) is listed as “STIM”. Further, at porcine pancreatic PLA2 [2] (read-out: % Inh. Avg.), the inhibition at 10 µg/mL was determined as 17% and the inhibition at 20 µg/mL turned out to be 16%. Besides, at porcine pancreatic PLA2 [2] (read-out: % Inh.), the inhibition at 25 µg/mL amounted to 8%.
On to `CCCCCCCCCCCCCCCCOC[C@@H](COP(=O)([O-])OCC[N+](C)(C)C)OP(=O)(OC)OCCCCCCCCCCCCCCCC` (single isomer, unassigned) [3,5,8,10-Tetraoxa-4,9-diphosphahexacosan-1-aminium, 7-[(hexa], for which the “% Inh.” value at porcine pancreatic PLA2 [1] (dose 25 μ/ml) came out at 0%.
For `CCCCCCCCCCCCCCCCOC[C@@H](COP(=O)([O-])OCC[N+](C)(C)C)OP(=O)(OC)OCCCCCCCCCCCCCCCC` (single isomer, unassigned), on porcine pancreatic PLA2 [2] (read-out: % Inh.), the inhibition at 25 µg/mL was found to be 91%. Besides, on porcine pancreatic PLA2 [2] (read-out: IC50 (converted)), the IC50 was 4.12 µM.
As for `CCCCCCCCCCCCCCCCOCC(COP(=O)([O-])OCC[N+](C)(C)C)OCC(=O)O` (stereo not shown) [2,5,7-Trioxa-6-phosphanonan-9-aminium, 1-carboxy-3-[(hexadecyloxy)methyl]-6-hydroxy-N,N,N-trimethyl-, hydroxide, inner salt, 6-oxide], the inhibition at 10 µg/mL at porcine pancreatic PLA2 [1] (dose 10 μ/ml) was 6%. Further, at porcine pancreatic PLA2 [1] (dose 25 μ/ml), the inhibition at 25 µg/mL stood at 30%. For the same compound, on porcine pancreatic PLA2 [2] (read-out: % Inh.), the inhibition at 20 µg/mL was 44%.
Take `CCCCCCCCCCCCCCCCOP(=O)(OC)OCCOP(=O)(O)OCCBr` (stereo not shown) [2-[[(2-Bromoethoxy)hydroxyphosphinyl]oxy]ethyl hexadecyl phosphoric acid, methyl ester]: the inhibition at 10 µg/mL at porcine pancreatic PLA2 [2] (read-out: % Inh. Avg.) was 21%.
Regarding `CCCCCCCCCCCCCCCCOCC(COP(=O)([O-])OCC[N+](C)(C)C)OP(=O)(OC)OCCCCC` (single isomer, unassigned) [3,5,8,10-Tetraoxa-4,9-diphosphapentadecan-1-aminium, 7-[(hexadecyloxy)methyl]-4-hydroxy-9-methoxy-N,N,N-trimethyl-, hydroxide, 4-(inner salt), 4,9-dioxide, less polar isomer], at porcine pancreatic PLA2 [2] (read-out: % Inh.), the inhibition at 10 µg/mL amounted to 76% and the inhibition at 20 µg/mL came to 83%. Also, at porcine pancreatic PLA2 [2] (read-out: IC50 (converted)), the IC50 is 8.05 µM.
